Experimental data: patent EP4745137A1 (Gluetacs Therapeutics (Shanghai) Co., Ltd., priority 2023, dated 2025)

Tests used:
CK1α = target: T1, CK1α (Homo sapiens, UniProt P48729+Q96SW2); assay: Western-blot assay of substrate protein degradation in hPBMCs, CK1α; format: cell-based; conditions: 24 hours of compound treatment
T1 construct: endogenous in cells; host or cells: hPBMCs (Milecell Biotechnologies)

GSPT1 = target: T2, GSPT1 (Homo sapiens, UniProt P15170+Q96SW2); assay: Western-blot assay of substrate protein degradation in hPBMCs, GSPT1; format: cell-based; conditions: 24 hours of compound treatment
T2 construct: endogenous in cells; host or cells: hPBMCs (Milecell Biotechnologies)

WEE1 = target: T3, WEE1 (Homo sapiens, UniProt P30291+Q96SW2); assay: Western-blot assay of substrate protein degradation in hPBMCs, WEE1; format: cell-based; conditions: 24 hours of compound treatment
T3 construct: endogenous in cells; host or cells: hPBMCs (Milecell Biotechnologies)

IKZF2 = target: T4, IKZF2 (Homo sapiens, UniProt Q96SW2+Q9UKS7); assay: Western-blot assay of substrate protein degradation in hPBMCs, IKZF2; format: cell-based; conditions: 24 hours of compound treatment
T4 construct: endogenous in cells; host or cells: hPBMCs (Milecell Biotechnologies)

IKZF1 = target: T5, IKZF1 (Homo sapiens, UniProt Q13422+Q96SW2); assay: Western-blot assay of substrate protein degradation in hPBMCs, IKZF1; format: cell-based; conditions: 24 hours of compound treatment
T5 construct: endogenous in cells; host or cells: hPBMCs (Milecell Biotechnologies)

[1] = target: T6, human Cereblon WT GST-tagged protein (Homo sapiens, UniProt Q96SW2); assay: CRBN-binding affinity by HTRF (CEREBLON BINDING kit); conditions: HTRF inhibitory activity, CEREBLON BINDING kit; read-out: HTRF IC50
T6 construct: purchased CISBIO 64BDCRBNPEH

IKZF3 = target: T7, IKZF3 (Homo sapiens, UniProt Q96SW2+Q9UKT9); assay: Western-blot assay of substrate protein degradation in hPBMCs, IKZF3; format: cell-based; conditions: 24 hours of compound treatment
T7 construct: endogenous in cells; host or cells: hPBMCs (Milecell Biotechnologies)

[2] = compounds tested at 50 nM and 500 nM (concentration of the table not stated)
[3] = 50 nM and 500 nM tested (concentration behind the class not stated)

T7 sequence (Q9UKT9 whole entry): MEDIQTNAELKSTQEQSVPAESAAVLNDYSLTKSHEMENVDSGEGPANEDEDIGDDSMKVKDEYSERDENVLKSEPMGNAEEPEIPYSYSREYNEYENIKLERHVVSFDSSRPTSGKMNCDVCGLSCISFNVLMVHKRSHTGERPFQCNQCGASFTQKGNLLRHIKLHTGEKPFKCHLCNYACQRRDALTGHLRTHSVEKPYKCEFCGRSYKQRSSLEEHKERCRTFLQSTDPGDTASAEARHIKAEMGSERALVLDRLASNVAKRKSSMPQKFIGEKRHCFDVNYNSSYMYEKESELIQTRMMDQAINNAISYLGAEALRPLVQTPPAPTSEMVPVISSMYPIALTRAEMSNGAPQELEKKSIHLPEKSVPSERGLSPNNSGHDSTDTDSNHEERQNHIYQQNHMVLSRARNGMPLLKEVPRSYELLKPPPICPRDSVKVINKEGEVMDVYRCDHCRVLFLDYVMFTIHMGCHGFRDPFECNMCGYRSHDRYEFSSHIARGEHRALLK
T7 sequence (Q96SW2 whole entry): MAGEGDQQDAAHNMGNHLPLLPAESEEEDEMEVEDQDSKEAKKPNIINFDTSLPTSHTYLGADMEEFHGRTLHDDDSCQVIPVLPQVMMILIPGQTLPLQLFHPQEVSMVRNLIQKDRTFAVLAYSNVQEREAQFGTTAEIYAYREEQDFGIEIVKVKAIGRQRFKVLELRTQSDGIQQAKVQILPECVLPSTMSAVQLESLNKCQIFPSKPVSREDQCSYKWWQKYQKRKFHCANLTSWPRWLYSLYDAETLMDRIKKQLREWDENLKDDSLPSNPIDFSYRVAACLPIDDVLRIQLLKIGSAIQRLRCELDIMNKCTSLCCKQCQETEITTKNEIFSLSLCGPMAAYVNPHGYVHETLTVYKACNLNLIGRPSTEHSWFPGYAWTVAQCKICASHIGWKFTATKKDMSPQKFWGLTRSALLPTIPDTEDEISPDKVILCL
T7 sequence (Q16531 whole entry partner): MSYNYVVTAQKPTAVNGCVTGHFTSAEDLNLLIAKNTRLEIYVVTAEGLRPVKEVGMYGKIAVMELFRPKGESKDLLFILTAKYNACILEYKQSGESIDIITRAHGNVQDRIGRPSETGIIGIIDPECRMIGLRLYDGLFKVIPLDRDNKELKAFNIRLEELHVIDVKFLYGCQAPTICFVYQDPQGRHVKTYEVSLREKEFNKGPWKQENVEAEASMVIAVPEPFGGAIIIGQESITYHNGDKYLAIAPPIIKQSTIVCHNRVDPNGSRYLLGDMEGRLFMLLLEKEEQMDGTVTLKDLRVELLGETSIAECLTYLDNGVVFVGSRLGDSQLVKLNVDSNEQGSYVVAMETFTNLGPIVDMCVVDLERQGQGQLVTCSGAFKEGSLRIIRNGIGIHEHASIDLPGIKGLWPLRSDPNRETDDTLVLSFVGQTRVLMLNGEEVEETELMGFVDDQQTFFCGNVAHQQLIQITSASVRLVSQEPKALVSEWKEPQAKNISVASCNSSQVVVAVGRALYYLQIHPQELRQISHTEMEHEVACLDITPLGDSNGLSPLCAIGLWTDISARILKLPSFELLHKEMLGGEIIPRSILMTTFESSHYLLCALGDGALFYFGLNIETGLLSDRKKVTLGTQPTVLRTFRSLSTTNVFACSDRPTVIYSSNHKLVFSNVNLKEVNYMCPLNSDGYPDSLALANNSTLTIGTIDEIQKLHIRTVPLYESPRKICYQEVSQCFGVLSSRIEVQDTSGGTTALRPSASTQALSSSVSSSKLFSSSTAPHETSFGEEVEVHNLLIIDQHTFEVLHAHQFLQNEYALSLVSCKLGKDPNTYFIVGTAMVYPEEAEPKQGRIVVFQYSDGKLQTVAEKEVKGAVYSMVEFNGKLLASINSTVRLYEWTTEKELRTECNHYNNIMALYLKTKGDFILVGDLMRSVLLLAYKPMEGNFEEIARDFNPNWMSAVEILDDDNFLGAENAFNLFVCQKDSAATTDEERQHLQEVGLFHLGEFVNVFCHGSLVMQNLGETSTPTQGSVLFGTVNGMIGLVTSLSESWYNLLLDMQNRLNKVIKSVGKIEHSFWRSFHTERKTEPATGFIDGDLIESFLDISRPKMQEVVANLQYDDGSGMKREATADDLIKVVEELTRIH
T5 sequence (Q13422 whole entry): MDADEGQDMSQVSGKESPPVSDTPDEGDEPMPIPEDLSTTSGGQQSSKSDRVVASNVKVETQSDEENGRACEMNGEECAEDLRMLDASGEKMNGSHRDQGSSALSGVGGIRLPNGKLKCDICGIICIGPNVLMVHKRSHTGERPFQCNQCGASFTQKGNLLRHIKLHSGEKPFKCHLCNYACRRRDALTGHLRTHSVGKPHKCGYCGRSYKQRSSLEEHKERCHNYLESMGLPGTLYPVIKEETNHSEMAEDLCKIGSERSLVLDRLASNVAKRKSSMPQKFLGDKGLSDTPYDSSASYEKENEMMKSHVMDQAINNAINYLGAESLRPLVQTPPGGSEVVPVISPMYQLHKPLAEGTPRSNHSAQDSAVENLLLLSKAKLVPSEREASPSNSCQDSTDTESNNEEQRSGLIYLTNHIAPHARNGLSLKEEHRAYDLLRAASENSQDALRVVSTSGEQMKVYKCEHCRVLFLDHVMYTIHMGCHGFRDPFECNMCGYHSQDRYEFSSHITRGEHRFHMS
T5 sequence (Q96SW2 whole entry): as the sequence (Q96SW2 whole entry) above
T5 sequence (Q16531 whole entry partner): as the sequence (Q16531 whole entry partner) above
T3 sequence (P30291 whole entry): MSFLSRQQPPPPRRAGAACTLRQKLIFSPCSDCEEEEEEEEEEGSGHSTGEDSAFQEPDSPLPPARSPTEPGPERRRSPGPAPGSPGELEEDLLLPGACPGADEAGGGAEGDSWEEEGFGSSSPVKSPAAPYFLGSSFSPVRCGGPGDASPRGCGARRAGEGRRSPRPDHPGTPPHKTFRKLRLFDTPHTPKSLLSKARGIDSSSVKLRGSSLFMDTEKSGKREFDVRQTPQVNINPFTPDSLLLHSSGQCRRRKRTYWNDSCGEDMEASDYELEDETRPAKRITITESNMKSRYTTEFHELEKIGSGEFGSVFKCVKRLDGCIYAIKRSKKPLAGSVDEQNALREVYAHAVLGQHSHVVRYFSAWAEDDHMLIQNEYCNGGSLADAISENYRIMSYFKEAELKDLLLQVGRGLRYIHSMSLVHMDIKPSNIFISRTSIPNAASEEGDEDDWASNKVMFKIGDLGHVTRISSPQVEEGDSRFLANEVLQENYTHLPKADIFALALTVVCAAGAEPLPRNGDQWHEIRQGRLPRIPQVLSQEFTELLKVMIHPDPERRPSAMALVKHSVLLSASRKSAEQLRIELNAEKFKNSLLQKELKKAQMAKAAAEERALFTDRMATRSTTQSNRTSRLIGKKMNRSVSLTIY
T3 sequence (Q96SW2 whole entry): as the sequence (Q96SW2 whole entry) above
T3 sequence (Q16531 whole entry partner): as the sequence (Q16531 whole entry partner) above
T6 sequence (Q96SW2 whole entry): as the sequence (Q96SW2 whole entry) above
T4 sequence (Q9UKS7 whole entry): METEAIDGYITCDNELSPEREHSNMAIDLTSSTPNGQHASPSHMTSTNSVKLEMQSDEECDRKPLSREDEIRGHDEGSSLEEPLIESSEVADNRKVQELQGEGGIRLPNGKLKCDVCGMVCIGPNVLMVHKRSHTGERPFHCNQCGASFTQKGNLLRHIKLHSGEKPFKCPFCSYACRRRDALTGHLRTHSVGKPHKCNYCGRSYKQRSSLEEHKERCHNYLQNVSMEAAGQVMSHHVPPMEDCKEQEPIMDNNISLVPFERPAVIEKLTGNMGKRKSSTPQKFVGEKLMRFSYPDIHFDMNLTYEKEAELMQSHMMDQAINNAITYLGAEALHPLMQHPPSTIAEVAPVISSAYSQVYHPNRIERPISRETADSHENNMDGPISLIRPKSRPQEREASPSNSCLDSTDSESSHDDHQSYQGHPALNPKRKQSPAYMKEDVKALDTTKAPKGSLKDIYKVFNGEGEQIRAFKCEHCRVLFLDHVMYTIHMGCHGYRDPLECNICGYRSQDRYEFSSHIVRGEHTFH
T4 sequence (Q96SW2 whole entry): as the sequence (Q96SW2 whole entry) above
T4 sequence (Q16531 whole entry partner): as the sequence (Q16531 whole entry partner) above
T2 sequence (P15170 whole entry): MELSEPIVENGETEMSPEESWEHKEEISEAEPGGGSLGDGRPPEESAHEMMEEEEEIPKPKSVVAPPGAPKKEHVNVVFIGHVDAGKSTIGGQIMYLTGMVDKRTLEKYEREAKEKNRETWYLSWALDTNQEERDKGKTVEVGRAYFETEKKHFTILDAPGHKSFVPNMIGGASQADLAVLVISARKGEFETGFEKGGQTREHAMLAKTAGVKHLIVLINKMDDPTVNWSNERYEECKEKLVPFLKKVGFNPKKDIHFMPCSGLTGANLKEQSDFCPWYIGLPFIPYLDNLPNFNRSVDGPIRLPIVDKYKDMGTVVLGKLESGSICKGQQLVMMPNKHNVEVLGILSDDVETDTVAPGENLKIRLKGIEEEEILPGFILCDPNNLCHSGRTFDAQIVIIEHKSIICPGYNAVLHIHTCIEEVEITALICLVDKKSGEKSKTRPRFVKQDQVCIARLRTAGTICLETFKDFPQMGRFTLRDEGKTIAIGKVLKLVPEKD
T2 sequence (Q96SW2 whole entry): as the sequence (Q96SW2 whole entry) above
T2 sequence (Q16531 whole entry partner): as the sequence (Q16531 whole entry partner) above

| SMILES | CK1a substrate protein remaining % (CK1α; [2]) | GSPT1 substrate protein remaining % (GSPT1; [2]) | Weel substrate protein remaining % (WEE1; [2]) | IKZF2 substrate protein remaining % (IKZF2; [2]) | IKZF 1 substrate protein remaining % (IKZF1; [2]) | IC50 [1] | IKZF3 substrate protein remaining % (IKZF3; [2]) | CK1a substrate protein remaining % (CK1α; [3]) | GSPT1 substrate protein remaining % (GSPT1; [3]) | Weel substrate protein remaining % (WEE1; [3]) | IKZF2 substrate protein remaining % (IKZF2; [3]) | IKZF 1 substrate protein remaining % (IKZF1; [3]) | IKZF3 substrate protein remaining % (IKZF3; [3]) |
| --- | --- | --- | --- | --- | --- | --- | --- | --- | --- | --- | --- | --- | --- |
| O=C1CCC(N2Cc3cc(CN4CCN(c5ccncc5Br)CC4)ccc3C2=O)C(=O)N1 (centres unmarked) [GT-04580, 3-(5-((4-(3-bromopyridin-4-yl)piperazin-1-yl)methyl)-1-oxoisoindolin-2-yl)piperidine-2,6-dione] | A (0% ≤ substrate protein remaining % ≤ 80%) | B (80%< substrate protein remaining %≤ 100%) | A (0% ≤ substrate protein remaining % ≤ 80%) | A (0% ≤ substrate protein remaining % ≤ 80%) | A (0% ≤ substrate protein remaining % ≤ 80%) | 0.5 to 1 µM | A (0% ≤ substrate protein remaining % ≤ 80%) |  |  |  |  |  |  |
| O=C1CCC(N2C(=O)c3ccc(CN4CC=C(c5c[nH]c6cc(F)ccc56)CC4)cc3C2=O)C(=O)N1 (centres unmarked) [GT-06634, 2-(2,6-dioxopiperidin-3-yl)-5-((4-(6-fluoro-1H-indol-3-yl)-3,6-dihydropyridin-1(2H)-yl)methyl)isoindoline-1,3-dione] |  |  |  |  |  | 0.5 to 1 µM |  | A (0% ≤ substrate protein remaining % ≤ 80%) | A (0% ≤ substrate protein remaining % ≤ 80%) | A (0% ≤ substrate protein remaining % ≤ 80%) | A (0% ≤ substrate protein remaining % ≤ 80%) | B (80%< substrate protein remaining %≤ 100%) | A (0% ≤ substrate protein remaining % ≤ 80%) |
| O=C1CCC(N2Cc3cc(CN4CCN(c5nc(N6CCCC6)nc6c5SCC6)CC4)ccc3C2=O)C(=O)N1 (centres unmarked) [GT-05389, 3-(1-oxo-5-((4-(2-(pyrrolidin-1-yl)-6,7-dihydrothieno[3,2-d]pyrimidin-4-yl)piperazin-1-yl)methyl)isoindolin-2-yl)piperidine-2,6-dione] | B (80%< substrate protein remaining %≤ 100%) | B (80%< substrate protein remaining %≤ 100%) | B (80%< substrate protein remaining %≤ 100%) | A (0% ≤ substrate protein remaining % ≤ 80%) | A (0% ≤ substrate protein remaining % ≤ 80%) | < 0.5 µM | B (80%< substrate protein remaining %≤ 100%) |  |  |  |  |  |  |
| O=C1CCC(N2Cc3cc(CN4CCC(c5ccon5)CC4)ccc3C2=O)C(=O)N1 (centres unmarked) [GT-04715, 3-(5-((4-(isoxazol-3-yl)piperidin-1-yl)methyl)-1-oxoisoindolin-2-yl)piperidine-2,6-dione] | A (0% ≤ substrate protein remaining % ≤ 80%) | A (0% ≤ substrate protein remaining % ≤ 80%) | A (0% ≤ substrate protein remaining % ≤ 80%) | A (0% ≤ substrate protein remaining % ≤ 80%) | A (0% ≤ substrate protein remaining % ≤ 80%) | 1.5 to 1.9 µM | A (0% ≤ substrate protein remaining % ≤ 80%) |  |  |  |  |  |  |
| O=C1CCC(N2Cc3cc(CN4CCN(c5nc(N6CCNCC6)c6sccc6n5)CC4)ccc3C2=O)C(=O)N1 (centres unmarked) [GT-04698, 3-(1-oxo-5-((4-(4-(piperazin-1-yl)thieno[3,2-d]pyrimidin-2-yl)piperazin-1-yl)methyl)isoindolin-2-yl)piperidine-2,6-dione] | B (80%< substrate protein remaining %≤ 100%) | A (0% ≤ substrate protein remaining % ≤ 80%) | A (0% ≤ substrate protein remaining % ≤ 80%) | A (0% ≤ substrate protein remaining % ≤ 80%) | A (0% ≤ substrate protein remaining % ≤ 80%) | 0.5 to 1 µM | A (0% ≤ substrate protein remaining % ≤ 80%) |  |  |  |  |  |  |
| O=C1CCC(N2Cc3cc(CN4CCN(c5ncccc5C(F)(F)F)CC4)ccc3C2=O)C(=O)N1 (centres unmarked) [GT-04434, 3-(1-oxo-5-((4-(3-(trifluoromethyl)pyridin-2-yl)piperazin-1-yl)methyl)isoindolin-2-yl)piperidine-2,6-dione] | B (80%< substrate protein remaining %≤ 100%) | A (0% ≤ substrate protein remaining % ≤ 80%) | B (80%< substrate protein remaining %≤ 100%) | B (80%< substrate protein remaining %≤ 100%) | B (80%< substrate protein remaining %≤ 100%) | 0.5 to 1 µM | B (80%< substrate protein remaining %≤ 100%) |  |  |  |  |  |  |
| Cc1nc(C2CCN(Cc3ccc4c(c3)CN(C3CCC(=O)NC3=O)C4=O)CC2)c2c3c(sc2n1)CCCC3 (centres unmarked) [GT-04993, 3-(5-((4-(2-methyl-5,6,7,8-tetrahydrobenzo[4,5]thieno[2,3-d]pyrimidin-4-yl)piperidin-1-yl)methyl)-1-oxoisoindolin-2-yl)piperidine-2,6-dione] | A (0% ≤ substrate protein remaining % ≤ 80%) | A (0% ≤ substrate protein remaining % ≤ 80%) | A (0% ≤ substrate protein remaining % ≤ 80%) | A (0% ≤ substrate protein remaining % ≤ 80%) | A (0% ≤ substrate protein remaining % ≤ 80%) | < 0.5 µM | A (0% ≤ substrate protein remaining % ≤ 80%) |  |  |  |  |  |  |
| O=C1CCC(N2Cc3cc(CN4CC5CC(C4)N5c4cccc(Cl)c4Cl)ccc3C2=O)C(=O)N1 (centres unmarked) [GT-04897, 3-(5-((6-(2,3-dichlorophenyl)-3,6-diazabicyclo[3.1.1]heptan-3-yl)methyl)-1-oxoisoindolin-2-yl)piperidine-2,6-dione] | B (80%< substrate protein remaining %≤ 100%) | A (0% ≤ substrate protein remaining % ≤ 80%) | B (80%< substrate protein remaining %≤ 100%) | B (80%< substrate protein remaining %≤ 100%) | B (80%< substrate protein remaining %≤ 100%) | 1.5 to 1.9 µM | B (80%< substrate protein remaining %≤ 100%) |  |  |  |  |  |  |
